Laboratory results as given in paper PMC4639830, “Inhibition of DYRK1A and GSK3B induces human β-cell proliferation” (Nature Communications, 2015).

What was measured:
Experiment in all cases: Kinase profiling
Format in all cases: biochemical
ROCK1 = biological target: T1, ROCK1 (Homo sapiens, UniProt Q13464); conditions: Conc 1000 nM; read-out: Percent inhibition, ROCK1
T1 construct: purchased Ambit (KINOMEscan)
Excerpt: (§1) ; Fig. 5a; Supplementary Table 1). We focused on Dyrk1a because other kinases inhibited by aminopyrazine compounds were not highly expressed in β-cells and because Dyrk1a was known to inhibit the NFAT pathway that was previously implicated in β-cell proliferation. We used molecular modelling to dock the aminopyrazine compounds into the published structure of Dyrk1a (protein databank accession code 2vx3.pdb; Fig. 5b).

PDK1 = biological target: T2, PDK1 (Homo sapiens, UniProt O15530); conditions: Conc 1000 nM; read-out: Percent inhibition, PDK1
T2 construct: purchased Ambit (KINOMEscan)
Excerpt: as §1

Flt-3 = biological target: T3, Flt-3 (Homo sapiens, UniProt P36888); conditions: read-out: Percent inhibition, Flt-3; for inhibition at 1 µM: Conc 1000 nM
T3 construct: purchased Ambit KINOMEscan
T3 sequence (P36888 27-993): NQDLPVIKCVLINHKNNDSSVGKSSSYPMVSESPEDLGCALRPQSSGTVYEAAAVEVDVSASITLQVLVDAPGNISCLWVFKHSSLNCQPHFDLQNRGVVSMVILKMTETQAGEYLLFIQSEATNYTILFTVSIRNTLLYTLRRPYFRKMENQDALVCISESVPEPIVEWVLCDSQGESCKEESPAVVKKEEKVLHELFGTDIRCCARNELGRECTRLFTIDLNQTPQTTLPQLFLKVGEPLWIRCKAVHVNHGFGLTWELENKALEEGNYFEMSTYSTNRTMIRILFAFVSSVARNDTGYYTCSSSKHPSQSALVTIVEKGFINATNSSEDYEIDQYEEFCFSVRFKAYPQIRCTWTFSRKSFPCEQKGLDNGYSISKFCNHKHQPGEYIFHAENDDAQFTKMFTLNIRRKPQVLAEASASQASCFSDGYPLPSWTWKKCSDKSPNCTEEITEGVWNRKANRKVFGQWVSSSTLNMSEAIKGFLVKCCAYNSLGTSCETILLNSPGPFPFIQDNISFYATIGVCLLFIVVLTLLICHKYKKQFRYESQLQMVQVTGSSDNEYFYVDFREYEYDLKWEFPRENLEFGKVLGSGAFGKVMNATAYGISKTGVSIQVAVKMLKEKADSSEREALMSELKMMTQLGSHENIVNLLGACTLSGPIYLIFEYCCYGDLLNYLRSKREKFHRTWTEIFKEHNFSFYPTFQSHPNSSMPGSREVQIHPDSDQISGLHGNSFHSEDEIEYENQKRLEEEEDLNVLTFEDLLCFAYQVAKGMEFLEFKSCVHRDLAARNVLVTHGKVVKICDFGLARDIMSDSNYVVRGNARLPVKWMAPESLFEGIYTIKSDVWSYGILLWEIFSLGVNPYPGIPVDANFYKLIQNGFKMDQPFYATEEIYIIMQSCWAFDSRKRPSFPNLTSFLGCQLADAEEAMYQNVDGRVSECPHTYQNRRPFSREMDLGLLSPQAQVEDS
Excerpt: as §1

p38alpha (MAPK14) = biological target: T4, p38alpha (MAPK14) (Homo sapiens, UniProt Q16539); conditions: Conc 1000 nM; read-out: Percent inhibition, p38alpha (MAPK14)
T4 construct: purchased Ambit (KINOMEscan)
Excerpt: as §1

TTK = biological target: T5, TTK (Homo sapiens, UniProt P33981); conditions: Conc 1000 nM; read-out: Percent inhibition, TTK
T5 construct: purchased Ambit (KINOMEscan)
Excerpt: as §1

MAPK1 (ERK2) = biological target: T6, MAPK1 (ERK2) (Homo sapiens, UniProt P28482); conditions: Conc 1000 nM; read-out: Percent inhibition, MAPK1 (ERK2)
T6 construct: purchased Ambit (KINOMEscan)
Excerpt: as §1

p38delta (MAPK13) = biological target: T7, p38delta (MAPK13) (Homo sapiens, UniProt O15264); conditions: Conc 1000 nM; read-out: Percent inhibition, p38delta (MAPK13)
T7 construct: purchased Ambit (KINOMEscan)
Excerpt: as §1

TRKA (NTRK1) = biological target: T8, TRKA (NTRK1) (Homo sapiens, UniProt P04629); conditions: read-out: Percent inhibition, TRKA (NTRK1); for inhibition at 1 µM: Conc 1000 nM
T8 construct: purchased Ambit (KINOMEscan)
Excerpt: as §1

PDGFRb = biological target: T9, PDGFRb (Homo sapiens, UniProt P09619); conditions: read-out: Percent inhibition, PDGFRb; for inhibition at 1 µM: Conc 1000 nM
T9 construct: purchased Ambit (KINOMEscan)
Excerpt: as §1

BTK = biological target: T10, BTK (Homo sapiens, UniProt Q06187); conditions: Conc 1000 nM; read-out: Percent inhibition, BTK
T10 construct: purchased Ambit KINOMEscan
Excerpt: as §1

AURORA-A = biological target: T11, AURORA-A (Homo sapiens, UniProt O14965); conditions: read-out: Percent inhibition, AURORA-A; for inhibition at 1 µM: Conc 1000 nM
T11 construct: purchased Ambit KINOMEscan
T11 sequence (O14965 1-403): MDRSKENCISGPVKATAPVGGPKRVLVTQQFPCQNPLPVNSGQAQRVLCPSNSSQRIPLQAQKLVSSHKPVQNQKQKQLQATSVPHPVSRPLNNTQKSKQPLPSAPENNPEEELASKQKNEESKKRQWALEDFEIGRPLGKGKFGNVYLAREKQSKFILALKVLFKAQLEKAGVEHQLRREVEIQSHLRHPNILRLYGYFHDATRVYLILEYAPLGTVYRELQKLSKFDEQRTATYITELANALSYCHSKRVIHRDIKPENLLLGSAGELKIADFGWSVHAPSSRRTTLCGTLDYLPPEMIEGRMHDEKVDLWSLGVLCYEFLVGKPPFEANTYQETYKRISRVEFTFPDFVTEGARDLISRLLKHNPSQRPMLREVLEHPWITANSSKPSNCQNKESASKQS
Excerpt: as §1

FGFR3 = biological target: T12, FGFR3 (Homo sapiens, UniProt P22607); conditions: Conc 1000 nM; read-out: Percent inhibition, FGFR3
T12 construct: purchased Ambit KINOMEscan
Excerpt: as §1

IKKb = biological target: T13, IKKb (Homo sapiens, UniProt O14920); conditions: Conc 1000 nM; read-out: Percent inhibition, IKKb
T13 construct: purchased Ambit KINOMEscan
Excerpt: as §1

CSK = biological target: T14, CSK (Homo sapiens, UniProt P41240); conditions: Conc 1000 nM; read-out: Percent inhibition, CSK
T14 construct: purchased Ambit KINOMEscan
Excerpt: as §1

ROS = biological target: T15, ROS (Homo sapiens, UniProt P08922); conditions: read-out: Percent inhibition, ROS; for inhibition at 1 µM: Conc 1000 nM
T15 construct: purchased Ambit (KINOMEscan)
Excerpt: as §1

CK1a = biological target: T16, CK1a (Homo sapiens, UniProt P48729); conditions: Conc 1000 nM; read-out: Percent inhibition, CK1a
T16 construct: purchased Ambit KINOMEscan
Excerpt: as §1

c-Kit = biological target: T17, c-Kit (Homo sapiens, UniProt P10721); conditions: Conc 1000 nM; read-out: Percent inhibition, c-Kit
T17 construct: purchased Ambit KINOMEscan
Excerpt: as §1

T15 sequence (P08922 28-2347): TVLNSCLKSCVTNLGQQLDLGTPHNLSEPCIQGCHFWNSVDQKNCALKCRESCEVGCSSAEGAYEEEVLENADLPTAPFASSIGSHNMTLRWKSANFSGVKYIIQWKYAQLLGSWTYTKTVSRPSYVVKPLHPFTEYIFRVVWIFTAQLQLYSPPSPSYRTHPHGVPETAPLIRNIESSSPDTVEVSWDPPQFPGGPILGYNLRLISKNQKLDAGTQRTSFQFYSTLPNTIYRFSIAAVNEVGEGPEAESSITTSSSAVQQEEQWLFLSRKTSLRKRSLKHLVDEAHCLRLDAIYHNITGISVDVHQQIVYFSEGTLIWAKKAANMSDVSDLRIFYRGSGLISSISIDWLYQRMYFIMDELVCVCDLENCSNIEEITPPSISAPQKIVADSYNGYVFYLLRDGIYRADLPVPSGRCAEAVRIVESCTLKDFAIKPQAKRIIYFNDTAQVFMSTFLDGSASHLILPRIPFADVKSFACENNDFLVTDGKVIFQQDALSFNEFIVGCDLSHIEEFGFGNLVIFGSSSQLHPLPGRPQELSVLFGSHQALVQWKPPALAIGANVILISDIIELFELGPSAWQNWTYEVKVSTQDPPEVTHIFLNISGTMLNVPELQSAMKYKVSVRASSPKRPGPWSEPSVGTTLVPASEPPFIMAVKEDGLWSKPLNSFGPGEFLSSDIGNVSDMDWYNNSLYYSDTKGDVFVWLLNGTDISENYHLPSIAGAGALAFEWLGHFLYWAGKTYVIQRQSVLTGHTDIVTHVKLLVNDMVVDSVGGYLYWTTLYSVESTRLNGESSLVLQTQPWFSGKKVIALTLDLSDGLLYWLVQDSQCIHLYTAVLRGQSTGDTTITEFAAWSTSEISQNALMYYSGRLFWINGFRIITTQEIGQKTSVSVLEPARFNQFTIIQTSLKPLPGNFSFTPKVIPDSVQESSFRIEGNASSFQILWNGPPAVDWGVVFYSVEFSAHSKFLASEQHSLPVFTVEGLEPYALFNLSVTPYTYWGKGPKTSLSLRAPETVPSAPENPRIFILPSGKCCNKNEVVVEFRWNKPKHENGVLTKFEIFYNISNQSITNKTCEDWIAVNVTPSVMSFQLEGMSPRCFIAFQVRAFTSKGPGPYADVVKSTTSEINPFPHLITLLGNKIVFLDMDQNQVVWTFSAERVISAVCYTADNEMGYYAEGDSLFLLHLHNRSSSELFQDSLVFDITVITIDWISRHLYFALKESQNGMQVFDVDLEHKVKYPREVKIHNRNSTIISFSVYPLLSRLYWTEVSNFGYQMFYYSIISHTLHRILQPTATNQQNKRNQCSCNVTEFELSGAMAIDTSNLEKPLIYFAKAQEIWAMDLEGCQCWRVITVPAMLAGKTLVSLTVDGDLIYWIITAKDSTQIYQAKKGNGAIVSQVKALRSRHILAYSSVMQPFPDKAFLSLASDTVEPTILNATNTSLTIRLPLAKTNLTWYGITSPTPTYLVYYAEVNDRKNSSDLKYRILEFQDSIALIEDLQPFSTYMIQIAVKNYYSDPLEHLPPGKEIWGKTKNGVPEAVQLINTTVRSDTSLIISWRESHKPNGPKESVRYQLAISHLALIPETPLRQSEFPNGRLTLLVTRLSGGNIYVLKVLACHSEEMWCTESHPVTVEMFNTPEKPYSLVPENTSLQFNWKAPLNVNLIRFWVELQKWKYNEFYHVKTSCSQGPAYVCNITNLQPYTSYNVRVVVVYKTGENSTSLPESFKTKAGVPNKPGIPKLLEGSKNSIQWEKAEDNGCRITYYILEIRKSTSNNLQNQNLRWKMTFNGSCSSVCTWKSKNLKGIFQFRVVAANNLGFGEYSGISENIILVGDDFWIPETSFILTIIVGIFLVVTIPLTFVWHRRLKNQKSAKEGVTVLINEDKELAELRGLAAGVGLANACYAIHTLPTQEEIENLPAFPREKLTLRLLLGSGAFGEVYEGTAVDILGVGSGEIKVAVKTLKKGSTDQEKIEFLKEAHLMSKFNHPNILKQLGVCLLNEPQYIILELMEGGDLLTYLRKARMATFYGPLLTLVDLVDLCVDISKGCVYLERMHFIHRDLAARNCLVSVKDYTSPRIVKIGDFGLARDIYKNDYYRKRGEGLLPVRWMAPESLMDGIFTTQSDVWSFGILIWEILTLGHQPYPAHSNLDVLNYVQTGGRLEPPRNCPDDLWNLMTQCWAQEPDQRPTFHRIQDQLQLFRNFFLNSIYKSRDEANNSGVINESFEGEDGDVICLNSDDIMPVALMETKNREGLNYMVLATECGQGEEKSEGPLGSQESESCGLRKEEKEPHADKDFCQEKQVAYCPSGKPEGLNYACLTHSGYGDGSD
T9 sequence (P09619 33-1106): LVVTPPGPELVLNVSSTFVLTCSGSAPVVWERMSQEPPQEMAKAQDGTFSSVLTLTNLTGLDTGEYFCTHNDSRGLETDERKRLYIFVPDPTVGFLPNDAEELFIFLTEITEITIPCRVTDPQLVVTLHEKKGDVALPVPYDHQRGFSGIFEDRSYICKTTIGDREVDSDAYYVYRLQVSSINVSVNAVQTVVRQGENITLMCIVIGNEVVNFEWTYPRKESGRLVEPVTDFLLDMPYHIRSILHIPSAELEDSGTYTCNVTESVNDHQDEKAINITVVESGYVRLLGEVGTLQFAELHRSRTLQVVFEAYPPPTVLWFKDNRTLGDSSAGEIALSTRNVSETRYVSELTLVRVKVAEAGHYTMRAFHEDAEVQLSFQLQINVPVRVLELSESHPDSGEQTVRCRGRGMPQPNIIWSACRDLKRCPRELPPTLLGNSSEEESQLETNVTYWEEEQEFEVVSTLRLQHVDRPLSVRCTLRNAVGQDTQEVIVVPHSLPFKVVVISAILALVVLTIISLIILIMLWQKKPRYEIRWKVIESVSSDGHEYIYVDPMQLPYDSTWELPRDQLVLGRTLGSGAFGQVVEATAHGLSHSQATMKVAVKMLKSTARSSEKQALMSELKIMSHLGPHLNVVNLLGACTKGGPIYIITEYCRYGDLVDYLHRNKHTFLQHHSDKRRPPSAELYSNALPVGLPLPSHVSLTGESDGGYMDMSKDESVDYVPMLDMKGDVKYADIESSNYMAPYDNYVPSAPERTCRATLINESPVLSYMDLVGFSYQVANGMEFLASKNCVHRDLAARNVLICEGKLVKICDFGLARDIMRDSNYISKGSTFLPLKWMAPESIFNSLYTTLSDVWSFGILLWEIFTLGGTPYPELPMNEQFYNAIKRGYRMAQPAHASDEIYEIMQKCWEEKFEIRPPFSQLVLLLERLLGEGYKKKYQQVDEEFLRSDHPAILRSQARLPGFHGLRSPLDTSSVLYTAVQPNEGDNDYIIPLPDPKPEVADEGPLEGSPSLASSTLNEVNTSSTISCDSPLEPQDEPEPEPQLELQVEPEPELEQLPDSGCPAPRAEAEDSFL
T8 sequence (P04629 33-796): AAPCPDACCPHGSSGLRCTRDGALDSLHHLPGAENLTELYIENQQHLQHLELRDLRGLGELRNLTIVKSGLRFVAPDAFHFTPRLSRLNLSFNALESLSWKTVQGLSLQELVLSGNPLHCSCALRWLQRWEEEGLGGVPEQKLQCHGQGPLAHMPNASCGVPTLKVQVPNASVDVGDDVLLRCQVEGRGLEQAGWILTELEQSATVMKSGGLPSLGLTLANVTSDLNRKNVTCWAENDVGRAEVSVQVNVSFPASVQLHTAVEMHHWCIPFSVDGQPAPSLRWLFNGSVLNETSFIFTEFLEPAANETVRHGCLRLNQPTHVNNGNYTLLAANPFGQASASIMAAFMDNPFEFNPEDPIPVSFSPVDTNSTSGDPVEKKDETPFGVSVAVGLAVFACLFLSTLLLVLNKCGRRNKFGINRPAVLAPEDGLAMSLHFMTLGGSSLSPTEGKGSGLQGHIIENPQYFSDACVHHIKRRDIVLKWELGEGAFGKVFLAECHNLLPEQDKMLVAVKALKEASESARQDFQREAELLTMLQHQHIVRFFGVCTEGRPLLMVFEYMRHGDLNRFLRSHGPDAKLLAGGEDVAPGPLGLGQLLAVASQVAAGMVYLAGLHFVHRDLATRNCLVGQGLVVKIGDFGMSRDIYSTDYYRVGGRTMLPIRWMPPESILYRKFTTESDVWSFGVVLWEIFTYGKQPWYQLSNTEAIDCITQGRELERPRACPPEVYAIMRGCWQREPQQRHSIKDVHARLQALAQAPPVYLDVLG
T10 sequence (Q06187 whole entry): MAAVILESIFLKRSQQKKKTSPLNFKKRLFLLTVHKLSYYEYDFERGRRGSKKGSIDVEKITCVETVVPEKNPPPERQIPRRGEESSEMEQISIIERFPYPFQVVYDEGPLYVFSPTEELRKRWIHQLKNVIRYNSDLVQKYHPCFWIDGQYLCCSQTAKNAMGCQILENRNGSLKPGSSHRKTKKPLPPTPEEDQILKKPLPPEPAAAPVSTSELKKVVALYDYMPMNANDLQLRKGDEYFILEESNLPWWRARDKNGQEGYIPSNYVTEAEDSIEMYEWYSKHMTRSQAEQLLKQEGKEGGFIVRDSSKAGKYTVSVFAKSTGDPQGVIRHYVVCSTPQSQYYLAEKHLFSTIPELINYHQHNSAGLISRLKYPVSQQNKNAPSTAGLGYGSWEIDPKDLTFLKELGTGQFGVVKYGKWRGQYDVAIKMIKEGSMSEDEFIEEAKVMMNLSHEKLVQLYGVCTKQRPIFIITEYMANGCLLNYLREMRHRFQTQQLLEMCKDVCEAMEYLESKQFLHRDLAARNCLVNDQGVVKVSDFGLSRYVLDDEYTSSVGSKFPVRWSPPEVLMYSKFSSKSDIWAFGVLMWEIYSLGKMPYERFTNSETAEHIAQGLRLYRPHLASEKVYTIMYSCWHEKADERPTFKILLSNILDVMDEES

Compound | inhibition at 1 µM (ROCK1) [%] | inhibition at 1 µM (PDK1) [%] | inhibition at 1 µM (Flt-3) [%] | inhibition at 1 µM (p38alpha (MAPK14)) [%] | inhibition at 1 µM (TTK) [%] | inhibition at 1 µM (MAPK1 (ERK2)) [%] | inhibition at 1 µM (p38delta (MAPK13)) [%] | inhibition at 1 µM (TRKA (NTRK1)) [%] | inhibition at 1 µM (PDGFRb) [%] | inhibition at 1 µM (BTK) [%] | inhibition at 1 µM (AURORA-A) [%] | inhibition at 1 µM (FGFR3) [%] | inhibition at 1 µM (IKKb) [%] | inhibition at 1 µM (CSK) [%] | inhibition at 1 µM (ROS) [%] | inhibition at 1 µM (CK1a) [%] | inhibition at 1 µM (c-Kit) [%] | further results
CC(C)Oc1ccc(F)c(-c2cnc(N)c(C(=O)Nc3cnccc3N3CCC[C@@H](C(=O)O)C3)n2)c1 [GNF4877] | 36 | 45 | 86 | 6 | 51 | 7 | 13 | 80 | 94 | 42 | 84 | 32 | -1 | 54 | 97 | 89 | 77 | inhibition at 0.2 µM (Flt-3; Conc 200 nM): 36%; inhibition at 0.2 µM (TRKA (NTRK1); Conc 200 nM): 19%; inhibition at 0.2 µM (PDGFRb; Conc 200 nM): 0%; inhibition at 0.2 µM (AURORA-A; Conc 200 nM): 0%; inhibition at 0.2 µM (ROS; Conc 200 nM): 71%
Nc1ncc(-c2ccccc2)nc1C(=O)Nc1cnccc1N1CCC(C(=O)O)CC1 [GNF7156] | 9 | 43 | 64 | 9 | 29 | 6 | 10 | 92 | 94 | 83 | 95 | 60 | 8 | 29 | 96 | 42 | 49 | –
